Laboratory results: patent US20140088085A1, “Substituted Benzoazepines As Toll-Like Receptor Modulators” (ARRAY BIOPHARMA, INC, priority 2011, published 2014)
Read-outs that look alike come from different tables or passages of the source.

Target: T1, hTLR8 (Homo sapiens, UniProt Q9NR97)
T1 construct: host or cells: HEK293 cells stably transfected with hTLR8
T1 sequence (Q9NR97 27-1041): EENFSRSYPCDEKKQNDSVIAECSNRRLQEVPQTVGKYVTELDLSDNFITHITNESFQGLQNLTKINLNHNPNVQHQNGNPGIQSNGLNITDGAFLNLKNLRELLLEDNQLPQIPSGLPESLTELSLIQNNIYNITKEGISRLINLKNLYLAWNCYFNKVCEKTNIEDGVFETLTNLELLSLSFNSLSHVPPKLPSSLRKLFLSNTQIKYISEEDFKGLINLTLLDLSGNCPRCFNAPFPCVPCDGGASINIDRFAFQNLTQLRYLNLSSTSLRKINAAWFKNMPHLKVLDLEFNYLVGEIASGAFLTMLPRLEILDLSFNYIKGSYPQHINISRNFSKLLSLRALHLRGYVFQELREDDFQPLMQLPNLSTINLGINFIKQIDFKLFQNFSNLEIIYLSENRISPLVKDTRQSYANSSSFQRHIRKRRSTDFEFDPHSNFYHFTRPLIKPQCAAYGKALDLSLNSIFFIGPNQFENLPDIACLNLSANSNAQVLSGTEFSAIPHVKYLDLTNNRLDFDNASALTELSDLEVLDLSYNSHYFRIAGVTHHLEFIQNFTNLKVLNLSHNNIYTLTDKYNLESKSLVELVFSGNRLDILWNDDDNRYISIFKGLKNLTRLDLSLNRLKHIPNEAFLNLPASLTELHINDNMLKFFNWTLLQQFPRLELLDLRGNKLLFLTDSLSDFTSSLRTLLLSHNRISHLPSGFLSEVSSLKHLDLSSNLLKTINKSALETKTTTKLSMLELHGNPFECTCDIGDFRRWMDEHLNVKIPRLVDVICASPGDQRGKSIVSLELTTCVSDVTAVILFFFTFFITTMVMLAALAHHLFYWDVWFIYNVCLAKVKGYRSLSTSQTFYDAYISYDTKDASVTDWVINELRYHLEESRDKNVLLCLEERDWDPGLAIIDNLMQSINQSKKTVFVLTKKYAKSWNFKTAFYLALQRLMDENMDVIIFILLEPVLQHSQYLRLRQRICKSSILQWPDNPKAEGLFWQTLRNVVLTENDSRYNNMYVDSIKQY
Assay: HEK-293 hTLR8 transfectant NF-κB SEAP reporter antagonist assay
Type: cell-based
Conditions: for inhibition at 25 µM: HEK293, TLR8 antagonist activity at 25 μM (in some cases assessed at lower concentrations)
Procedure: The HEK-293 hTLR transfectant assay employs HEK293 cells stably transfected with various hTLRs and transiently co-transfected with a plasmid containing an NF-κB driven secreted embryonic alkaline phosphate (SEAP) reporter gene. Stimulation of TLRs activates their downstream signaling pathways and induces nuclear translocation of the transcription factor NF-κB. Reporter gene activity is then measured using a spectrophotometric assay.
For the TLR8 antagonist assays, cells are transiently transfected with the reporter gene on Day 1 per the supplier's instructions. Antagonist compounds are added to the cultures on Day 2 followed by addition of a TLR8 agonist approximately 2 hours later. Cultures are incubated overnight and SEAP activity is measured on Day 3.
In a typical assay, 50,000 HEK239 hTLR8 cells are seeded per culture well and transiently transfected with the SEAP reporter gene. Antagonists are added to cultures in culture medium and […] DMSO over a concentration range of 0.1 nanomolar to 10 micromolar. TLR8 agonists are added to cultures 2 hours later at a fixed concentration (e.g., 1 micromolar or 10 micromolar of Compound A) and cultures are then incubated for 16-24 hrs at 37° C. in a humidified CO incubator. Antagonists are also evaluated for activity in the absence of agonist.
TLR8 antagonist activity at 25 μM is presented in Table 2, where + denotes a % inhibition of 20-39, ++ denotes a % inhibition of 40-59, +++ denotes a % inhibition of 60-79 and ++++ denotes a % inhibition of 80-99. In some cases, antagonist activity was assessed at lower concentrations, for example, at 8.3, 2.8, or less than 1 μM.
TLR8 antagonist activity was measured in a hTLR8 assay format, measuring IC50 values. Compounds were incubated with hTLR8 reporter cells for two hours, then 1 μM Compound A was added to induce TLR8 overnight. IC50 were then calculated.

[1] = hTLR8 reporter cells, 2 h preincubation, then 1 μM Compound A overnight, read-out: IC50
[2] = IC50, nM, vs. VTX-378 1 μM, agonist VTX-378 at 1 μM
[3] = IC50, nM, vs. VTX-378 10 μM, agonist VTX-378 at 10 μM
[4] = agonist VTX-378 at 0.5 μM, read-out: IC50, nM, vs. VTX-378 0.5 μM

SMILES | inhibition at 25 µM | IC50 [2] | IC50 [3] | other results
CCCN(CCC)C(=O)C1=Cc2cc(OC)c(-c3ccc(C(=O)N(CCC)CCC)cc3)cc2N=C(N)C1 [Compound 12, (1E,4E)-2-Amino-8-(4-(dipropylcarbamoyl)phenyl)-7-methoxy-N,N-dipropyl-3H-benzo[b]azepine-4-carboxamide] | – | – | – | IC50 [1]: 1000 to 5000 nM
CCCN(CCCO)C(=O)C1=Cc2cc(OC)c(-c3ccc(C(=O)N4CCCC4)cc3)cc2N=C(N)C1 [Compound 25, (1E,4E)-2-Amino-N-(3-hydroxypropyl)-7-methoxy-N-propyl-8-(4-(pyrrolidine-1-carbonyl)phenyl)-3H-benzo[b]azepine-4-carboxamide] | 20 to 39% | – | – | –
CCCN(CCC)C(=O)C1=Cc2ccc(-c3ccc(C(=O)N4CCCC4)cc3)cc2N=C(NN)C1 [Compound 33, (1E,4E)-2-Hydrazinyl-N,N-dipropyl-8-(4-(pyrrolidine-1-carbonyl)phenyl)-3H-benzo[b]azepine-4-carboxamide] | 80 to 99% | – | – | IC50 [1]: 1000 to 5000 nM
CCCN(CCCO)C(=O)C1=Cc2ccc(-c3ccc(C(=O)N4CCCC4)cc3)cc2N=C(NC)C1 [Compound 46, (1E,4E)-N-(3-Hydroxypropyl)-2-(methylamino)-N-propyl-8-(4-(pyrrolidine-1-carbonyl)phenyl)-3H-benzo[b]azepine-4-carboxamide] | 40 to 59% | – | – | –
CCCN(CCCO)C(=O)C1=Cc2ccc(-c3ccc(C(=O)N4CCCC4)cc3)cc2N=C(NCCN(C)C)C1 [Compound 47, (1E,4E)-2-(2-(Dimethylamino)ethylamino)-N-(3-hydroxypropyl)-N-propyl-8-(4-(pyrrolidine-1-carbonyl)phenyl)-3H-benzo[b]azepine-4-carboxamide] | 20 to 39% | – | – | –
CCOC(=O)C1=Cc2cc(-c3ccc(C(=O)N4CCCC4)cc3)ccc2N=C(N)C1 [Compound 63, (1E,4E)-Ethyl 2-amino-7-(4-(pyrrolidine-1-carbonyl)phenyl)-3H-benzo[b]azepine-4-carboxylate] | 80 to 99% | – | – | IC50 [1]: < 1000 nM
CCCN(CCC)C(=O)C1=Cc2cc(OC)c(-c3ccc(C(=O)N4CCCC4)cc3)cc2N=C(N)C1 [Compound 65, (1E,4E)-2-Amino-7-methoxy-N,N-dipropyl-8-(4-(pyrrolidine-1-carbonyl)phenyl)-3H-benzo[b]azepine-4-carboxamide] | 60 to 79% | – | – | IC50 [1]: 5000 to 10000 nM
CCCN(CCC)C(=O)C1=Cc2cc(OC)ccc2N=C(N)C1 [Compound 70, (1E,4E)-2-amino-7-methoxy-N,N-dipropyl-3H-benzo[b]azepine-4-carboxamide] | 40 to 59% | – | – | –
CCOC(=O)C1=Cc2cc(OCc3ccccn3)ccc2N=C(N)C1 [Compound 74, (1E,4E)-ethyl 2-amino-7-(pyridin-2-ylmethoxy)-3H-benzo[b]azepine-4-carboxylate] | 60 to 79% | – | – | IC50 [1]: 1000 to 5000 nM
CCOC(=O)C1=Cc2cc(OC)c(-c3ccc(C(=O)N4CCCC4)cc3)cc2N=C(N)C1 [Compound 76, (1E,4E)-ethyl 2-amino-7-methoxy-8-(4-(pyrrolidine-1-carbonyl)phenyl)-3H-benzo[b]azepine-4-carboxylate] | 80 to 99% | – | – | IC50 [1]: ≥ 10000 nM
CCOC(=O)N1Cc2ccc(-c3ccc(C(=O)N4CCCC4)cc3)cc2N=C(N)C12CC2 [Compound 88, (E)-Ethyl 2-amino-8-(4-(pyrrolidine-1-carbonyl)phenyl)spiro[benzo[e][1,4]diazepine-3,1′-cyclopropane]-4(5H)-carboxylate] | 20 to 39% | – | – | IC50 [1]: 5000 to 10000 nM
CCOC(=O)C1=Cc2ccc(-c3ccc(C(=O)N4CCCC4)cc3)cc2N2CCN=C2C1 [Compound 90, (E)-ethyl 9-(4-(pyrrolidine-1-carbonyl)phenyl)-2,4-dihydro-1H-benzo[f]imidazo[1,2-a]azepine-5-carboxylate] | 60 to 79% | – | – | –
CCOC(=O)C1=Cc2cc(-c3ccc(C(=O)N4CCCC4)cc3)ccc2-n2ccnc2C1 [Compound 2919] | – | ≥ 10000 nM | ≥ 10000 nM | –
CCOC(=O)C1=Cc2cc(-c3ccc(C(=O)N4CCCC4)cc3)ccc2N=C(NC)C1 [Compound 2922] | – | 1000 to 10000 nM | ≥ 10000 nM | –
CCOC(=O)C1=Cc2cc(-c3ccc(C(=O)N4CCCC4)cc3)ccc2N=C(NN(C)C)C1 [Compound 2926] | – | 1000 to 10000 nM | ≥ 10000 nM | –
CCOC(=O)C1=Cc2cc(-c3ccc(C(=O)N4CCCC4)cc3)ccc2N=C(N(C)C)C1 [Compound 2929] | – | ≥ 10000 nM | ≥ 10000 nM | –
COC(=O)C1=Cc2cc(-c3ccc(C(=O)N4CCCC4)cc3)ccc2N=C(N)C1 [Compound 2931] | – | < 1000 nM | 1000 to 10000 nM | –
CCOC(=O)N1CC(N)=Nc2ccc(-c3ccc(C(=O)N4CCCC4)cc3)cc2C1 [Compound 2954] | – | ≥ 10000 nM | ≥ 10000 nM | –
CCOC(=O)C1=Cc2cc(-c3ccc(C(=O)N4CCCC4)cc3)ccc2N=C(NN)C1 [Compound 2962] | – | ≥ 10000 nM | ≥ 10000 nM | –
CCOC(=O)C1=Cc2cc(-c3ccc(C(=O)N4CCCC4)cc3)ccc2N2CCN=C2C1 [Compound 2966] | – | ≥ 10000 nM | ≥ 10000 nM | –
CCOC(=O)C1=Cc2cc(-c3ccc(C(=O)N4CCCC4)cc3)ccc2-n2cnnc2C1 [Compound 2976] | – | ≥ 10000 nM | ≥ 10000 nM | –
CC(C)OC(=O)C1=Cc2cc(-c3ccc(C(=O)N4CCCC4)cc3)ccc2N=C(N)C1 [Compound 2984] | – | < 1000 nM | 1000 to 10000 nM | –
CN(C)C(=O)C1=Cc2cc(-c3ccc(C(=O)N4CCCC4)cc3)ccc2N=C(N)C1 [Compound 2986] | – | < 1000 nM | ≥ 10000 nM | –
CCOC(=O)C1=Cc2cc(-c3ccc(C(=O)N4CCCC4)cc3)ccc2-n2c(n[nH]c2=O)C1 [Compound 3000] | – | ≥ 10000 nM | ≥ 10000 nM | –
CCOC(=O)N1Cc2cc(-c3ccc(C(=O)N4CCCC4)cc3)ccc2N=C(N)C12CC2 [Compound 3020] | – | ≥ 10000 nM | ≥ 10000 nM | –
CCOC(=O)C1=Cc2cc(-c3ccc(C(=O)N4CCCC4)cc3)ccc2N=C(N)C1C (stereo not shown) [Compound 3173] | – | < 1000 nM | – | IC50 [4]: < 1000 nM
CCOC(=O)C1=Cc2cc(-c3ccc(C(=O)N4CCCC4)cc3)ccc2N=C(N)C12CC2 [Compound 3260] | – | < 1000 nM | – | IC50 (IC50, nM, vs. 3M002 10 μM, agonist 3M002 at 10 μM): < 1000 nM; IC50 [4]: < 1000 nM
